Tests used:
[1] = system: T1, purified chitinase from black soybean seeds (acidic chitinase, 20.1 kDa); assay: fluorimetric release of 4-methylumbelliferone, Lineweaver-Burk; format: biochemical, Glycine max; details: pH 5.0, 40 °C, 0.05 M sodium acetate, 30 min
T1 construct: native purification from seeds; monomer; smaller than known soybean seed class III (28 kDa) and class I (32 kDa) chitinases; trace basic isoform co-purified
From the text: fluorimetric release of 4-methylumbelliferone, Lineweaver-Burk on purified chitinase from black soybean seeds (acidic chitinase, 20.1 kDa)

[2] = system: T1, purified chitinase from black soybean seeds (acidic chitinase, 20.1 kDa); assay: p-nitrophenol release at […] nm, Lineweaver-Burk; format: biochemical, Glycine max; details: pH 4.0, 37 °C, 0.05 M acetate, 30 min

Row | SMILES | Km [1] [µM] | Km [2] [µM]
1 | CC(=O)N[C@H]1[C@H](Oc2ccc3c(C)cc(=O)oc3c2)O[C@H](CO)[C@@H](O[C@@H]2O[C@H](CO)[C@@H](O[C@@H]3O[C@H](CO)[C@@H](O)[C@H](O)[C@H]3NC(C)=O)[C@H](O)[C@H]2NC(C)=O)[C@@H]1O [4-MU-GlcNAc3] | 17.4 | 
2 | CC(=O)N[C@H]1[C@H](Oc2ccc([N+](=O)[O-])cc2)O[C@H](CO)[C@@H](O[C@@H]2O[C@H](CO)[C@@H](O[C@@H]3O[C@H](CO)[C@@H](O[C@@H]4O[C@H](CO)[C@@H](O)[C@H](O)[C@H]4NC(C)=O)[C@H](O)[C@H]3NC(C)=O)[C@H](O)[C@H]2NC(C)=O)[C@@H]1O [pNp-GlcNAc4] |  | 245

Source: PMC4249961, “Characterization of an Acidic Chitinase from Seeds of Black Soybean (Glycine max (L) Merr Tainan No. 3)” (PLoS ONE, 2014)
